One data set concerns the target T1, BRN2 (Homo sapiens, UniProt P20265).
T1 sequence (P20265 1-443): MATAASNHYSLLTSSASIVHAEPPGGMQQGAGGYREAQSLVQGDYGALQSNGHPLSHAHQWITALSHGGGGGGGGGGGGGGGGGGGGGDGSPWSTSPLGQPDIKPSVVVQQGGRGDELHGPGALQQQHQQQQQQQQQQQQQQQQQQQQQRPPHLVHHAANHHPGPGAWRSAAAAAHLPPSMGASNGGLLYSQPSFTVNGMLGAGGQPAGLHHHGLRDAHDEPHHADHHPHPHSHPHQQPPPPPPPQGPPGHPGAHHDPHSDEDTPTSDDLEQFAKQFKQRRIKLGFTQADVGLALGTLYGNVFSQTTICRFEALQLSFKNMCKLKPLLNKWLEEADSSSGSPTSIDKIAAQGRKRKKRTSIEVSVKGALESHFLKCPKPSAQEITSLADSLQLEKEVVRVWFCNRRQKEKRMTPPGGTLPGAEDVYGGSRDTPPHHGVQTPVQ
Kind of data set: cell-based. The settings on record: negative = activation; for inhibition at 10 µM: read-out: % BRN2 Inhibition (10 μM), 10 μM compound, 24 hours, 42D^ENZR cells stably expressing BRN2-luciferase reporter; for inhibition at 30 µM: read-out: % BRN2 Inhibition (30 μM), 30 μM compound, 24 hours, 42D^ENZR cells stably expressing BRN2-luciferase reporter. For orientation: In a reporter assay the amount or activity of a reporter protein is the signal.

In data set [1] the test system is 42D^ENZR cells vs 16D^CRPC cells. Kind of data set: Cell proliferation specificity, 42D^ENZR cells vs 16D^CRPC cells. In kind it is cell-based. Conditions: 42D cells express BRN2, 16D cells do not; some also LNCaP; result in words. As for the experimental part:
Plate 42DENZR (˜7000 cells per well) and 16D^CRPC (˜5000 cells per well) cells in 96 well plate with a volume of 100 μL per well. • 2. Next day 1 mL aliquots of media are combined with 3× the desired concentration of compounds. The aliquots are vortexed and 50 μL of each 3× concentration is added to the 100 μL of media in each well to give the ix desired concentration.
The following are the desired concentrations:
0, 10 nM, 100 nM, 500 nM, 1 μM, 2.5 μM, 5 μM, 10 μM, 15 μM, […], 30 μM. • 3. Approximately 72 hours later, 17 μL of 10% Glutaraldehyde is added to each well and plates are placed on a shaker for 20-30 minutes. • 4. Media is washed off the fixed cells by slow submersion in a container of water. Then the water is removed by tapping the plate upside down. • 5. 75 μL of Crystal Violet™ solution is added into the 96 well plates and placed on a shaker for ˜30 minutes. • 6. Media is washed off the fixed cells by repeated slow submersion in a container of water and the plates are allowed to dry over-night. • 7. Next day, 75 μL of Sorensen Solution is accurately pipetted into each well. The plates placed on a shaker for ˜30 minutes. • 8. Absorbance is measured in the plate at 590 nm.
Compounds that Show Specificity Towards 42D^ENZR Cells Vs 16D^CRPC Cells Progress to Step 4.
(§1) Where data is not available “na” is inserted.

The nature of data set [2]: Liver microsome metabolic stability, HLM. In kind it is in vitro ADME. The settings on record: HLM (first of two values), 1 μM compound, 0.25 mg/mL protein; for Met Stab % (60 mins HLM/MLM): percent remaining at 60 min, 1 mM NADPH; for half-life at 1 µM: human, liver microsomes, pH 7.4, read-out: T1/2 in (mins HLM/MLM). The method, then:
(§2) Potassium phosphate buffer (Kphos) was prepared by adding 0.647 g potassium phosphate monobasic (KH2PO4) and 3.527 g potassium phosphate dibasic ([…]) to 400 mL of Milli-Q water. pH of the buffer was adjusted to 7.4 and volume was made up to 500 mL.
(§3) Microsomes (20 mg/mL) were diluted in KH2PO4 buffer to prepare a concentration of 0.357 mg/mL.
(§4) Stock solutions of BRN2 inhibitors were prepared in DMSO at a concentration of 1 mM
(§5) A stock solution of 3.33 mM NADPH (3.33×) was prepared by dissolving appropriate amount of NADPH in KH2PO4 buffer.
(§6) Total Incubation volume: 100 μL
(§7) Compound concentration: 1 μM
(§8) Protein Concentration: 0.25 mg/mL
(§9) An 1120 μL aliquot of Kphos buffer (50 mM, pH 7.4) containing liver microsomes (0.357 mg/mL) were added to individual 2 mL tubes (final concentration 0.25 mg/mL). Test compounds (1 mM) and positive controls were directly spiked into respective tubes to prepare a concentration of 1.428 μM (final concentration 1 μM). From the above mix, 70 μL was added to individual wells of 96 well reaction plates and pre-incubated in a 37° C. water bath for 5 min. All the reactions were initiated by adding 30 μL of 3.33 mM NADPH (final concentration 1 mM). Reactions without NADPH and buffer controls (minus NADPH) at 0 min and 60 min were also incubated to rule out non-NADPH metabolism or chemical instability in the incubation buffer. All reactions were terminated using 100 μL of ice-cold acetonitrile containing internal standard at 0, 5, 15, 30 and 60 min. The plates were centrifuged at 4000 RPM for 15 min and 100 μL aliquots were submitted for analysis by LC-MS/MS.
(§10) Samples were monitored for parent compounds disappearance in MRM mode using LC-MS/MS.
(§11) The percent remaining of test compounds and positive control in each sample was determined by considering peak area ratio in the 0 minute sample as 100%. The Half-life of compounds in microsomes is calculated by formula:
(§12) Half-life (t½) (min)=0.693/k, where k is gradient of line determined from plot of peak area ratio (compound peak area/internal standard peak area) against time.
(§13) In vitro intrinsic clearance (CL'int) (units in mL/min/kg) was calculated using the formula.
(§14) [formula] • For liver microsomes, scaling factor used was 45 mg microsomal protein per gm liver. • Indicates liver weight (gm) which varies species wise. For mice the liver weights are 90 gm.
as §1

The nature of data set [3]: Liver microsome metabolic stability, MLM. It counts as in vitro ADME. The settings on record: MLM (single value or second of two), 1 μM compound, 0.25 mg/mL protein; for Met Stab % (60 mins HLM/MLM): percent remaining at 60 min, 1 mM NADPH; for half-life at 1 µM: mouse, liver microsomes, pH 7.4, read-out: T1/2 in (mins HLM/MLM). As for the experimental part:
as §2, §3, §4, §5, §6, §7, §8, §9, §10, §11, §12, §13, §14, §1
On the technique in general: Liver microsomes are vesicles of endoplasmic reticulum, rich in cytochrome P450 enzymes.

The text below walks through data of US20220106304A1, “Transcription Factor BRN2 Inhibitory Compounds as Therapeutics and Methods for Their Use” (The University of British Columbia, priority 2018, published 2022).

As a reminder, the inhibition is the relative decrease from the control value, in per cent. With `Cc1c(-c2csc(-c3ccccn3)n2)oc2ccccc12` [VPC-18-13], at BRN2, the inhibition at 10 µM was determined as 98.3% and the inhibition at 30 µM was 99.9%. Besides, the specificity entry in data set [1] is recorded as “VPC-18-13 (specific)”.

Turning to `c1coc(-c2nc(-c3cc4ccccc4o3)cs2)c1` [VPC-18-14], on BRN2, the inhibition at 10 µM was found to be 95.9% and the inhibition at 30 µM came to 96.6%. The specificity entry in data set [1] was “VPC-18-14 (specific)”.

For the compound `c1ccc(-n2cc(-c3nc4ccccc4o3)cn2)cc1` [VPC-18-18], on BRN2, the inhibition at 10 µM is 82.8% and the inhibition at 30 µM amounted to 87%. In addition, the specificity result in data set [1] was “VPC-18-18 (specific- affects 42D but not 16D)”.

Turning to `Cn1c(-c2ccc(-c3ccccc3)o2)nc2ccc(Cl)cc21` [VPC-18-42, 6-Chloro-1-methyl-2-(5-phenylfuran-2-yl)-1H-benzo[d]imidazole], in data set [2], the “Met Stab % (60 mins HLM/MLM)” value is 15% and the half-life at 1 µM was found to be 23 min. At BRN2, the inhibition at 10 µM was 77.3% and the inhibition at 30 µM turned out to be 76.8%. In addition, in data set [3], the “Met Stab % (60 mins HLM/MLM)” value was 1% and the half-life at 1 µM was 11 min.

Take `Cn1c(-c2csc(-c3ccccc3F)n2)nc2ccc(F)cc21` [VPC-18-45, 4-(6-Fluoro-1-methyl-1H-benzo[d]imidazol-2-yl)-2-(2-fluorophenyl)thiazole]: in data set [2], the “Met Stab % (60 mins HLM/MLM)” value is 35% and the half-life at 1 µM is 42 min. For the same compound, at BRN2, the inhibition at 10 µM amounted to 7.53% and the inhibition at 30 µM came out at 47.2%. For the same compound, in data set [3], the “Met Stab % (60 mins HLM/MLM)” value came out at 22% and the half-life at 1 µM stood at 32 min.

Take `Cn1c(-c2ccc(-c3ccccc3)o2)nc2ccc(S(N)(=O)=O)cc21` [VPC-18-47, 1-Methyl-2-(5-phenylfuran-2-yl)-1H-benzo[d]imidazole-6-sulfonamide]: in data set [2], the “Met Stab % (60 mins HLM/MLM)” value turned out to be 54% and the half-life at 1 µM was above 60 min. In addition, at BRN2, the inhibition at 10 µM turned out to be 39.8% and the inhibition at 30 µM worked out at 82.1%. For the same compound, in data set [3], the “Met Stab % (60 mins HLM/MLM)” value was 53% and the half-life at 1 µM was above 60 min.

Consider `O=[N+]([O-])c1ccc2nc(-c3csc(-c4ccco4)n3)[nH]c2c1` [VPC-18-48, 2-(Furan-2-yl)-4-(6-nitro-1H-benzo[d]imidazol-2-yl)thiazole], for which, in data set [2], the “Met Stab % (60 mins HLM/MLM)” value is reported as 9% and the half-life at 1 µM stood at 17 min. In addition, at BRN2, the inhibition at 10 µM was -6.56% and the inhibition at 30 µM is 91.2%. Also, in data set [3], the “Met Stab % (60 mins HLM/MLM)” value stood at 2% and the half-life at 1 µM turned out to be 10 min.

As to `Cc1c(-c2csc(-c3ccco3)n2)oc2ccccc12` [VPC-18-53, 2-(Furan-2-yl)-4-(3-methylbenzofuran-2-yl)thiazole], in data set [2], the “Met Stab % (60 mins HLM/MLM)” value is listed as 39% and the half-life at 1 µM was 42 min. Besides, on BRN2, the inhibition at 10 µM came to 78.1% and the inhibition at 30 µM is 84.5%. In data set [3], the “Met Stab % (60 mins HLM/MLM)” value was 2% and the half-life at 1 µM worked out at 2 min.

With `Clc1ccc2cc(-c3csc(-c4ccco4)n3)oc2c1` [VPC-18-66, 4-(6-chlorobenzofuran-2-yl)-2-(furan-2-yl)thiazole], at BRN2, the inhibition at 10 µM turned out to be 82% and the inhibition at 30 µM is 94%. Also, the specificity result in data set [1] was “VPC-18-66 (specific- no effect on LNCaP and 16D)”. Moreover, in data set [3], the “Met Stab % (60 mins HLM/MLM)” value came to 31% and the half-life at 1 µM came to 42 min.

For the compound `c1ccc2oc(-c3csc(-c4ccoc4)n3)cc2c1` [VPC-18-76, 4-(benzofuran-2-yl)-2-(furan-3-yl)thiazole], on BRN2, the inhibition at 10 µM was determined as 96.3% and the inhibition at 30 µM came out at 94.9%. Besides, the specificity entry in data set [1] is “VPC-18-76 (specific)”. In data set [3], the “Met Stab % (60 mins HLM/MLM)” value turned out to be 1% and the half-life at 1 µM is 9 min.

Turning to `c1coc(-c2nc(-c3coc4ccccc34)cs2)c1` [VPC-18-81, 4-(benzofuran-3-yl)-2-(furan-2-yl)thiazole], at BRN2, the inhibition at 10 µM stood at 97% and the inhibition at 30 µM was 99%. In addition, in data set [1], the specificity entry is recorded as “VPC-18-81 (specific to 42D)”. In data set [3], the “Met Stab % (60 mins HLM/MLM)” value stood at 2% and the half-life at 1 µM stood at 11 min.

With `Clc1ccc2cc(-c3coc(-c4ccc[nH]4)n3)oc2c1` [VPC-18-127, 4-(6-chlorobenzofuran-2-yl)-2-(1H-pyrrol-2-yl)oxazole], the specificity result in data set [1] is given as “VPC-18- 127 (specific)”. For the same compound, in data set [3], the “Met Stab % (60 mins HLM/MLM)” value came to 16% and the half-life at 1 µM amounted to 22 min.

For `Clc1ccc2cc(-c3nccc(-c4ccc[nH]4)n3)oc2c1` [VPC-18-133, 2-(6-chlorobenzofuran-2-yl)-4-(1H-pyrrol-2-yl)pyrimidine], the specificity entry in data set [1] is “VPC-18- 133 (specific)”. In data set [3], the “Met Stab % (60 mins HLM/MLM)” value is given as 1% and the half-life at 1 µM is 8 min.

As to `Cn1cccc1-c1nc(-c2cc3ccc(Cl)cc3o2)cs1` [VPC-18-139, 4-(6-chlorobenzofuran-2-yl)-2-(1-methyl-1H-pyrrol-2-yl)thiazole], the specificity entry in data set [1] was “VPC-18- 139 (specific)”. Further, in data set [3], the “Met Stab % (60 mins HLM/MLM)” value is given as 23% and the half-life at 1 µM amounted to 30 min.

For the compound `FC(F)(F)c1ccc2cc(-c3nccc(-c4ccc[nH]4)n3)oc2c1` [VPC-18-140, 4-(1H-pyrrol-2-yl)-2-(6-(trifluoromethyl)benzofuran-2-yl)pyrimidine], the specificity entry in data set [1] is “VPC-18- 140 (specific)”. Moreover, in data set [3], the “Met Stab % (60 mins HLM/MLM)” value was determined as 2% and the half-life at 1 µM was 10 min.

Take `Clc1ccc2cc(-c3nccc(-c4ccco4)n3)oc2c1` [VPC-18-141, 2-(6-chlorobenzofuran-2-yl)-4-(furan-2-yl)pyrimidine]: the specificity entry in data set [1] is “VPC-18- 141 (specific)”. In data set [3], the “Met Stab % (60 mins HLM/MLM)” value was 3% and the half-life at 1 µM stood at 13 min.

In the case of `Cn1c(-c2ccc(-c3ccccc3)o2)nc2ccccc21` [VPC-18], on BRN2, the inhibition at 10 µM came out at 97.6% and the inhibition at 30 µM worked out at 99.4%. In addition, in data set [1], the specificity result is listed as “VPC-18 (42D not 16D)”.
